From patent US6362190B1, “Method for treating inflammatory diseases by administering a thrombin inhibitor” (Merck & Co., Inc., priority 1998, dated 2002)

Test system: adjuvant-induced arthritis (Mycobacterium butyricum) in female Lewis rats
Assay: Development and severity of adjuvant-induced arthritis in female Lewis rats (paw volumes, radiographic scores)
Type: in vivo
Conditions: for Radiographic total scores of secondary paws compared with vehicle treated rats, in words: day 21, secondary paws; for Radiographic scores, Primary paws / Radiographic scores, Secondary paws / Increase in primary foot volume, Day 21 / Increase in secondary foot volume, Day 21: day 21; for Radiographic scores, Primary paws / Radiographic scores, Secondary paws: total score, maximum 26 per foot, high score = high inflammation, thrombin inhibitor 50 mg/kg/day, Indomethacin 1 mg/kg/day oral; for Increase in primary foot volume, Day 14 / Increase in primary foot volume, Day 21: primary (adjuvant-injected) paw; for Increase in primary foot volume, Day 14 / Increase in primary foot volume, Day 21 / Increase in secondary foot volume, Day 14 / Increase in secondary foot volume, Day 21: oral gavage daily, thrombin inhibitor 50 mg/kg, Indomethacin 1 mg/kg; for Increase in primary foot volume, Day 14: mercury displacement plethysmography; for Increase in secondary foot volume, Day 14 / Increase in secondary foot volume, Day 21: secondary (contralateral, not injected) paw
Experimental: The thrombin inhibitor 3-(2-phenylethylamino)-6-methyl-1-(2-amino-6-methyl-5-methylene-carboxamidomethylpyridinyl)-2-pyrazinone was evaluated to determine its effect on induced arthritis. Arthritis was induced by injection of female Lewis rats with Mycobacterium butyricum. The effect of the thrombin inhibitor was compared with the effect of Indomethacin and the effect of a vehicle control.
Fifty 7.5 week old female Lewis rats (body weight 149-174 grams) were included in the study. Forty rats were each injected with an emulsion containing 0.5 mg of Mycobacterium butyricum in 0.1 ml of light mineral oil, and a negative control group of 10 rats was not injected with adjuvant.
Ten of the rats receiving Mycobacterium butyricum further received Indomethacin by oral gavage at a total daily dose of 1 mg/kg. Ten of the rats receiving Mycobacterium butyricum further received the thrombin inhibitor by oral gavage at a total daily dose of 50 mg/kg. Twenty of the rats receiving Mycobacterium butyricum further received a vehicle control of sterile distilled water.
Body weights, primary and secondary paw volumes, and lateral radiographs were determined before and at various time points including 21 days following adjuvant injection. The primary paw was injected with the Mycobacterium butyricum while the secondary (contralateral) paw was not injected. Paw volumes were determined by mercury displacement plethysmography. Lateral radiographs were obtained under Ketamine and Xylazine anesthesia.
Radiographs were made of both hind paws on days 0 and 21 and evaluated for changes in the soft and hard tissues. The following radiographic changes were graded numerically according to severity:increased soft tissue volume (0-4), narrowing or widening of joint spaces ([…]), subchondral erosion (0-3), periosteal reaction (0-4), osteolysis (0-4), subluxation (0-3), and degenerative joint changes (0-3). The maximum possible score for each foot was 26. High scores correspond with high levels of inflammation.

## COc1ccc2c(c1)c(CC(=O)O)c(C)n2C(=O)c1ccc(Cl)cc1 [Indomethacin, reference compound]
Day 21, primary paws, versus vehicle
  Radiographic total scores of primary paws compared with vehicle treated rats, in words: significantly less
Versus vehicle
  Radiographic total scores of secondary paws compared with vehicle treated rats, in words: significantly less
  Radiographic scores, Primary paws: 4.6 ± 1.6
  Radiographic scores, Secondary paws: 3.5 ± 1.4
  Increase in primary foot volume, Day 14: 726 ± 174 µL
  Increase in primary foot volume, Day 21: 622 ± 156 µL
  Increase in secondary foot volume, Day 14: 246 ± 162 µL
  Increase in secondary foot volume, Day 21: 253 ± 138 µL

## Cc1nc(N)ccc1CNC(=O)Cn1c(C)cnc(NCCc2ccccc2)c1=O [Thrombin inhibitor, 3-(2-phenylethylamino)-6-methyl-1-(2-amino-6-methyl-5-methylene-carboxamidomethylpyridinyl)-2-pyrazinone]
Versus vehicle
  Radiographic total scores of secondary paws compared with vehicle treated rats, in words: significantly less
  Radiographic scores, Primary paws: 14.0 ± 3.3
  Radiographic scores, Secondary paws: 3.8 ± 3.79
  Increase in primary foot volume, Day 14: 1591 ± 318 µL
  Increase in primary foot volume, Day 21: 1997 ± 605 µL
  Increase in secondary foot volume, Day 14: 382 ± 312 µL
  Increase in secondary foot volume, Day 21: 704 ± 289 µL
Primary paw, thrombin inhibitor 50 mg/kg/day oral gavage
  Effect on the primary paw (foot volume), in words: insignificant effect
Secondary paw, thrombin inhibitor 50 mg/kg/day oral gavage
  Anti-inflammatory effect on the secondary paw (foot volume), in words: significant anti-inflammatory effect
